Experimental data published in US12194039B2, “Methods of treating heart failure by administering omecamtiv mecarbil” (Cytokinetics, Inc., priority 2020, dated 2025).
Like-named read-outs stand apart in the source and are kept apart here.

System: patients with HFrEF by ejection fraction quartile
Assay type: in vivo, human
Parameters: Change from baseline in KCCQ Total Symptom Score, least square mean / KCCQ Total Symptom Score Inpatient, Treatment Difference, least squares mean / KCCQ Total Symptom Score Outpatient, Treatment Difference, least squares mean / KCCQ Total Symptom Score, Treatment Difference, least squares mean: scale not given here
Conditions: for Adjudicated First Major Cardiac Ischemic Events, % / Adjudicated First Stroke, % / Adverse Event: Ventricular Tachyarrhythmia, % / All-cause Death (%) / All-cause Death Rate / All-cause Death n/N / Any treatment Emergent Serious Adverse Events, % / Positively Adjudicated Myocardial Infarction, % / Serious Adverse Event: Ventricular Arrhythmia Requiring Treatment, % / 1st HF Hospitalization (%) / 1st HF Hospitalization Rate / 1st HF Hospitalization n/N / First HF Event (%) / First HF Event Rate / First HF Event n/N / Primary Outcome (%) / Primary Outcome Rate / Primary Outcome n/N / Total HF Events, Events / Total HF Events, Rate / Total HF Hospitalizations, Events / Total HF Hospitalizations, Rate: OM group; for Adjudicated First Major Cardiac Ischemic Events, Relative Risk / Adjudicated First Stroke, Relative Risk / Adverse Event: Ventricular Tachyarrhythmia, Relative Risk / All-cause Death ARR / All-cause Death HR (95% CI) / Any treatment Emergent Serious Adverse Events, Relative Risk / Positively Adjudicated Myocardial Infarction, Relative Risk / Serious Adverse Event: Ventricular Arrhythmia Requiring Treatment, Relative Risk / 1st HF Hospitalization ARR / 1st HF Hospitalization HR (95% CI) / First HF Event ARR / First HF Event HR (95% CI) / Primary Outcome ARR / Primary Outcome HR (95% CI) / Total HF Events, ARR / Total HF Events, Ratio (95% CI) / Total HF Hospitalizations, ARR / Total HF Hospitalizations, Ratio (95% CI): OM vs placebo
Description: Continuous variables were summarized via means and standard deviations or medians and interquartile ranges, as appropriate. Categorical variables are summarized with counts and percentages. Tests of trend across categories were conducted via linear regression, Cuzick's non-parametric trend test, and Chi-squared tests of trend, respectively. Treatment effects on continuous outcomes were assessed via linear regression models adjusted for the corresponding baseline value of the parameter of interest. Survival analyses were conducted using Poisson regression models to estimate incidence rates, rate differences, and rate ratios and Cox proportional hazards models to estimate hazard ratios. […] To allow for potentially non-linear associations between ejection fraction and time-to-event outcomes, restricted cubic splines were utilized in the Poisson regression models with 3 knots. All analyses were conducted using STATA 16 (College Station, Tex.). P-values <0.05 were considered statistically significant. Due to the exploratory nature of these analyses, no adjustments were made for multiple comparisons.
Within each randomization setting subgroup least squares mean is from the mixed model which includes baseline total symptom score value, region, baseline eGFR, scheduled visit, treatment group and interaction of treatment with scheduled visit as covariates. Influence of Ejection Fraction on the Treatment Effect of Omecamtiv Mecarbil

[1] = EF 23-28%, baseline to Week 24, vs placebo
[2] = EF 29-32%, baseline to Week 24, vs placebo

Structure (SMILES): COC(=O)N1CCN(Cc2cccc(NC(=O)Nc3ccc(C)nc3)c2F)CC1 [omecamtiv mecarbil]
- Adjudicated First Major Cardiac Ischemic Events, % (EF22%): 4.8%
- Adjudicated First Stroke, % (EF22%): 1.5%
- Adverse Event: Ventricular Tachyarrhythmia, % (EF22%): 9.8%
- All-cause Death (%) (EF22%): (29%)
- All-cause Death Rate (EF22%): 17.0 per 100 patient years
- All-cause Death n/N (EF22%): 329/1127
- Any treatment Emergent Serious Adverse Events, % (EF22%): (60.7%)
- Positively Adjudicated Myocardial Infarction, % (EF22%): 3.3%
- Serious Adverse Event: Ventricular Arrhythmia Requiring Treatment, % (EF22%): 3.6%
- Adjudicated First Major Cardiac Ischemic Events, Relative Risk (EF22%): RR: 1.19
- Adjudicated First Stroke, Relative Risk (EF22%): RR: 0.65
- Adverse Event: Ventricular Tachyarrhythmia, Relative Risk (EF22%): RR: 1.00
- All-cause Death ARR (EF22%): 0.8 per 100 patient years
- All-cause Death HR (95% CI) (EF22%): 0.98 (0.84, 1.14)
- Any treatment Emergent Serious Adverse Events, Relative Risk (EF22%): RR: 0.94
- Positively Adjudicated Myocardial Infarction, Relative Risk (EF22%): RR: 1.22
- Serious Adverse Event: Ventricular Arrhythmia Requiring Treatment, Relative Risk (EF22%): RR: 0.88
- 1st HF Hospitalization (%) (EF 23-28%): (27%)
- 1st HF Hospitalization Rate (EF 23-28%): 17.8 per 100 patient years
- 1st HF Hospitalization n/N (EF 23-28%): 295/1086
- Adjudicated First Major Cardiac Ischemic Events, % (EF 23-28%): 4.3%
- Adjudicated First Stroke, % (EF 23-28%): 1.8%
- Adverse Event: Ventricular Tachyarrhythmia, % (EF 23-28%): 8.3%
- All-cause Death (%) (EF 23-28%): (26%)
- All-cause Death Rate (EF 23-28%): 14.4 per 100 patient years
- All-cause Death n/N (EF 23-28%): 278/1086
- Any treatment Emergent Serious Adverse Events, % (EF 23-28%): (56.9%)
- First HF Event (%) (EF 23-28%): (28%)
- First HF Event Rate (EF 23-28%): 18.5 per 100 patient years
- First HF Event n/N (EF 23-28%): 304/1086
- Positively Adjudicated Myocardial Infarction, % (EF 23-28%): 2.7%
- Primary Outcome (%) (EF 23-28%): (36%)
- Primary Outcome Rate (EF 23-28%): 24.0 per 100 patient years
- Primary Outcome n/N (EF 23-28%): 393/1086
- Serious Adverse Event: Ventricular Arrhythmia Requiring Treatment, % (EF 23-28%): 3.2%
- Total HF Events, Events (EF 23-28%): 577
- Total HF Events, Rate (EF 23-28%): 30.0 per 100 pt-yrs
- Total HF Hospitalizations, Events (EF 23-28%): 541
- Total HF Hospitalizations, Rate (EF 23-28%): 28.1 per 100 pt-yrs
- 1st HF Hospitalization ARR (EF 23-28%): 1.8 per 100 patient years
- 1st HF Hospitalization HR (95% CI) (EF 23-28%): 0.86 (0.74, 1.01)
- Adjudicated First Major Cardiac Ischemic Events, Relative Risk (EF 23-28%): 1.00
- Adjudicated First Stroke, Relative Risk (EF 23-28%): 0.53
- Adverse Event: Ventricular Tachyarrhythmia, Relative Risk (EF 23-28%): 0.98
- All-cause Death ARR (EF 23-28%): 1.4 per 100 patient years
- All-cause Death HR (95% CI) (EF 23-28%): 0.89 (0.76, 1.05)
- Any treatment Emergent Serious Adverse Events, Relative Risk (EF 23-28%): 0.96
- First HF Event ARR (EF 23-28%): 2.4 per 100 patient years
- First HF Event HR (95% CI) (EF 23-28%): 0.84 (0.72, 0.98)
- Positively Adjudicated Myocardial Infarction, Relative Risk (EF 23-28%): 0.89
- Primary Outcome ARR (EF 23-28%): 3.3 per 100 patient years
- Primary Outcome HR (95% CI) (EF 23-28%): 0.85 (0.74, 0.97)
- Serious Adverse Event: Ventricular Arrhythmia Requiring Treatment, Relative Risk (EF 23-28%): 1.04
- Total HF Events, ARR (EF 23-28%): 4.0 per 100 pt-yrs
- Total HF Events, Ratio (95% CI) (EF 23-28%): 0.83 (0.68, 1.01)
- Total HF Hospitalizations, ARR (EF 23-28%): 3.2 per 100 pt-yrs
- Total HF Hospitalizations, Ratio (95% CI) (EF 23-28%): 0.84 (0.69, 1.02)
- Creatinine, Treatment Difference [1]: 0.01 mg/dL
- Heart rate, Treatment Difference [1]: −1.7 bpm
- KCCQ Total Symptom Score, Treatment Difference, least squares mean [1]: −0.6
- NT-proBNP (Ratio) [1]: 0.90
- Potassium, Treatment Difference [1]: -0.01 mmol/L
- Systolic BP, Treatment Difference [1]: −0.6 mmHg
- Troponin I (Ratio) [1]: 1.29
- Troponin I, Treatment Difference (95% CI) [1]: 4 (3, 5) ng/L
- 1st HF Hospitalization (%) (EF 29-32%): (27%)
- 1st HF Hospitalization Rate (EF 29-32%): 17.6 per 100 patient years
- 1st HF Hospitalization n/N (EF 29-32%): 279/1015
- Adjudicated First Major Cardiac Ischemic Events, % (EF 29-32%): 4.1%
- Adjudicated First Stroke, % (EF 29-32%): 2.4%
- Adverse Event: Ventricular Tachyarrhythmia, % (EF 29-32%): 6.9%
- All-cause Death (%) (EF 29-32%): (26%)
- All-cause Death Rate (EF 29-32%): 13.9 per 100 patient years
- All-cause Death n/N (EF 29-32%): 260/1015
- Any treatment Emergent Serious Adverse Events, % (EF 29-32%): (57.3%)
- First HF Event (%) (EF 29-32%): (28%)
- First HF Event Rate (EF 29-32%): 18.2 per 100 patient years
- First HF Event n/N (EF 29-32%): 286/1015
- Positively Adjudicated Myocardial Infarction, % (EF 29-32%): 2.2%
- Primary Outcome (%) (EF 29-32%): (37%)
- Primary Outcome Rate (EF 29-32%): 23.8 per 100 patient years
- Primary Outcome n/N (EF 29-32%): 375/1015
- Serious Adverse Event: Ventricular Arrhythmia Requiring Treatment, % (EF 29-32%): 2.1%
- Total HF Events, Events (EF 29-32%): 506
- Total HF Events, Rate (EF 29-32%): 27.1 per 100 pt-yrs
- Total HF Hospitalizations, Events (EF 29-32%): 472
- Total HF Hospitalizations, Rate (EF 29-32%): 25.3 per 100 pt-yrs
- 1st HF Hospitalization ARR (EF 29-32%): −2.1 per 100 patient years
- 1st HF Hospitalization HR (95% CI) (EF 29-32%): 1.19 (1.01, 1.42)
- Adjudicated First Major Cardiac Ischemic Events, Relative Risk (EF 29-32%): 1.08
- Adjudicated First Stroke, Relative Risk (EF 29-32%): 0.83
- Adverse Event: Ventricular Tachyarrhythmia, Relative Risk (EF 29-32%): 0.96
- All-cause Death ARR (EF 29-32%): −2.0 per 100 patient years
- All-cause Death HR (95% CI) (EF 29-32%): 1.19 (0.99, 1.42)
- Any treatment Emergent Serious Adverse Events, Relative Risk (EF 29-32%): 0.99
- First HF Event ARR (EF 29-32%): −1.3 per 100 patient years
- First HF Event HR (95% CI) (EF 29-32%): 1.13 (0.96, 1.33)
- Positively Adjudicated Myocardial Infarction, Relative Risk (EF 29-32%): 1.00
- Primary Outcome ARR (EF 29-32%): −1.4 per 100 patient years
- Primary Outcome HR (95% CI) (EF 29-32%): 1.11 (0.96, 1.28)
- Serious Adverse Event: Ventricular Arrhythmia Requiring Treatment, Relative Risk (EF 29-32%): 0.78
- Total HF Events, ARR (EF 29-32%): 0.6 per 100 pt-yrs
- Total HF Events, Ratio (95% CI) (EF 29-32%): 1.14 (0.93, 1.40)
- Total HF Hospitalizations, ARR (EF 29-32%): −0.1 per 100 pt-yrs
- Total HF Hospitalizations, Ratio (95% CI) (EF 29-32%): 1.18 (0.96, 1.46)
- Creatinine, Treatment Difference [2]: 0.01 mg/dL
- Heart rate, Treatment Difference [2]: −1.9 bpm
- KCCQ Total Symptom Score, Treatment Difference, least squares mean [2]: +0.3
- NT-proBNP (Ratio) [2]: 0.95
- Potassium, Treatment Difference [2]: -0.01 mmol/L
- Systolic BP, Treatment Difference [2]: −0.6 mmHg
